Measurements: patent publication US12410211B2, “V1A receptor partial agonist and method of use” (PharmaIN Corporation, priority 2020, dated 2025)
Like-named read-outs stand apart in the source and are kept apart here. Marks after values point to notes of the source that are not given here.

Key:
[1] = Telemetric evaluation of portal vein pressure in rats with bile duct ligation (Example 9); format: in vivo, Sprague Dawley rats; conditions: for Percent decrease (%) in Mean Portal Vein Pressure (MPVP) from BDL baseline prior to treatment: BDL rats n = 4, 12 μg/kg subcutaneous
Procedure: For this study, animals (Sprague Dawley rats (240-300 g at surgery from Charles River Laboratory) were maintained at room temperatures (20 to 22° C.) with 14-hour light, 10-hour dark cycle when not performing study procedures. The mean portal vein pressure (MPVP) reduction efficacy of a peptide of Formula ([…] [SEQ ID NO. 13]; Mpa and C are disulfide bonded; represented as TA-1) was compared to terlipressin in telemetered male with Bile Duct Ligation (BDL) and Sham surgery. On Study Day 1, rats received bile duct ligation surgery and telemetry implantation. The BDL group (n=4) had two stands of silk suture tightened and tied to occlude the bile duct; the sham group (n=3) had sutures loosely tied around the bile duct so that no occlusion occurred. After recovery from surgery, all rats had their portal vein pressure monitored continuously via telemetry until Day 22. […] Terlipressin was administered through intravenous bolus into a lateral tail vein on Day 20 and 21. All animals were dosed under manual restraint. Systolic portal vein pressure and diastolic portal vein pressure were measured to calculate the Mean Portal Vein Pressure ([…] was analyzed by averaging 5 minute intervals for the first 4 hours after dose and thereafter averaging 1 hour intervals after dose until 24 hours. […] Telemetric evaluation of […] [SEQ ID NO. 13] and Terlipressin on portal vein pressure in rats with bile duct ligation. The animal room temperatures were set to maintain 20 to 22° C. A 14-hour light, 10-hour dark cycle was implemented unless interrupted by study procedures. Efficacy was assessed by evaluating mean portal vein pressure (MPVP) at different concentrations of Formula 1 and Terlipressin in telemetered male Sprague Dawley rats (240-300 g at surgery from Charles River Laboratory) with Bile Duct Ligation (BDL) and Sham surgery. On Study Day 1, rats received bile duct ligation surgery and telemetry implantation. The BDL group (n=4) had two stands of silk suture tightened and tied to occlude the bile duct; the sham group (n=3) had sutures loosely tied around the bile duct so that no occlusion occurred. After recovery from surgery, all rats had their portal vein pressure monitored continuously via telemetry until Day 22. […] Formula 1 was administered at different concentrations subcutaneously on Day 15 to 19, and Day 23; Terlipressin was administered through intravenous bolus into a lateral tail vein on Day 20 and 21. All animals were dosed under manual restraint. Systolic portal vein pressure and diastolic portal vein pressure were measured to calculate the Mean Portal Vein Pressure ([…] was analyzed by averaging 5 minute intervals for the first 4 hours after dose and thereafter averaging 1 hour intervals after dose until 24 hours.

V1a receptor = molecular target: T1, V1a receptor (Homo sapiens, UniProt P37288); test: V1a Human Vasopressin GPCR Cell Based Agonist Calcium Flux Assay; conditions: for Emax: read-out: V1a Highest agonist effect (% of AVP); for Emax / EC50: n = 2
T1 construct: host or cells: CHO cells
Procedure: Peptides of Formula (I) include Mpa-Tyr-Phe-Hgn-Asn-Cys-Pro-Lys(X)a-Gly-NH2 [SEQ ID NO. 24]; where (X)a is a peptide with “a” residues and each residue X is independently selected from Gly, and a D- or L-amino acid version of Ala, Lys, Orn, Glu, and Asp, where “a” is 0-10. V1a Human Vasopressin GPCR Cell Based Agonist Calcium Flux Assay were conducted at Eurofins Cerep SA (France) on a fee for service basis. Human recombinant CHO cells expressing human V1 receptors were distributed in microplates. Intracellular calcium signal was detected by fluorimetry, and the signal was acquired before and after addition of a known agonist concentration. The following agonist concentrations were tested (nM); 0.0128, 0.064, 0.32, 1.6, 8, 40, 200, and 1,000. […] All assays were performed in duplicate. Changes in fluorescence intensity reflected changes in the concentration of free cytosolic calcium. […] The half-maximal effective concentration (EC50) was determined by a non-linear regression analysis of the concentration-response curves generated with mean replicate values using Hill equation curve fitting (Cerep, I'Evescault, France).
V1a Human Vasopressin GPCR Cell Based Agonist Calcium Flux Assay were conducted using human recombinant CHO cells expressing human V1 receptor. Briefly, human recombinant CHO cells expressing human V1 receptor were distributed in microplates at 4.5×10^4 cells/well. The fluorescent probe (Fluo4 Direct, Invitrogen) mixed with probenicid in HBSS buffer (Invitrogen) complemented with 20 mM HEPES (Invitrogen) (pH 7.4) is then added into each well and equilibrated with the cells for 60 min at 37° C. then 15 min at 22° C. Thereafter, the assay plates are positioned in a microplate reader (CellLux, PerkinElmer) which is used for the addition of the test compound, reference agonist or HBSS buffer (basal control), and the measurements of changes in fluorescence intensity which varies proportionally to the free cytosolic Ca^2+ ion concentration. The following agonist concentrations were tested (nM), 0.0128, 0.064, 0.32, 1.6, 8, 40, 200, and 1,000. […] All assays were performed in duplicate. Changes in fluorescence intensity reflected changes in the concentration of free cytosolic calcium. […] Referring to FIG. 3 and Table 4, the half-maximal effective concentration (EC50) was determined by non-linear regression analysis of the concentration-response curves generated with mean replicate values using Hill equation curve fitting (Cerep, I'Evescault, France).

[2] = Therapeutic index (NOAEL/NOEL): paleness, lethargy, ataxia observation in Sprague-Dawley rats (Example 7); format: in vivo; conditions: for NOAEL at 24 h: male, Sprague-Dawley
Text: As used herein, the term “therapeutic index” (TI; also referred to as therapeutic ratio) is a quantitative measure of the relative safety of a drug. […] For the purpose of the present application, lethargy is a lack of energy and/or sleepiness which is visually observed in rats as a lack of mobility, such as a lack of mobility even in the presence of human activity. For the purpose of present specification, peripheral vasoconstriction is visually observed by a paleness of the extremities (e.g., skin of hands, feet, ears, and lips). In rats, peripheral vasoconstriction is determined by a side-by-side comparison of ear paleness in treated subjects (e.g., Sprague Dawley rats, a white rat with easily visualizable changes in redness/paleness) vs. untreated control subjects. The V1a agonist (or partial agonist) with a high therapeutic index will have a better safety profile than that with a low therapeutic index by providing a wider margin of safety for dosing during the treatment of the disease. This NOAEL/NOEL ratio, being a quantitative measure of the relative safety, is a comparison of the amount of a therapeutic agent that causes the therapeutic effect (useful effect, vasoconstriction for the purpose of the present specification) to the amount that causes toxicity. A V1a agonist that causes severe vasoconstriction will affect not only the peripheral vessels, with several layer of smooth muscles, but also other vessels present in other organs (e.g., heart, lungs, kidney, brain) and this will result in observed lethargy and eventually ataxia. A partial agonist is less likely to reach such an extreme level of vasoconstriction and is believed to have a higher therapeutic index.
In this study, 8 to 10 weeks male Sprague-Dawley rats (Charles River; Wilmington, MA) under isoflurane anesthesia (n=3 or 6) were intravenously (IV) or subcutaneously (SC) injected or administered with various test articles. Prior to administration of test articles, the injection area was clipped free of fur, to allow for clear visualization of the dose site, and animal weight was measured and recorded. Animals were housed two per cage. […] Lethargy is when the animal eyes cannot fully open and is associated deep breathing and limited of movement even in the presence of human.

[3] = S.C., at the Marked adverse effect dose
[4] = S.C., at the Mild adverse effect dose
[5] = in vivo, sc, S.C., rat, read-out: Highest dose with no-observed adverse effect level without lethargy (NOAEL)
[6] = Table 3, CHO cells expressing human V1 receptor, read-out: Estimated V1a EC50 (nM)

T1 sequence (P37288 whole entry): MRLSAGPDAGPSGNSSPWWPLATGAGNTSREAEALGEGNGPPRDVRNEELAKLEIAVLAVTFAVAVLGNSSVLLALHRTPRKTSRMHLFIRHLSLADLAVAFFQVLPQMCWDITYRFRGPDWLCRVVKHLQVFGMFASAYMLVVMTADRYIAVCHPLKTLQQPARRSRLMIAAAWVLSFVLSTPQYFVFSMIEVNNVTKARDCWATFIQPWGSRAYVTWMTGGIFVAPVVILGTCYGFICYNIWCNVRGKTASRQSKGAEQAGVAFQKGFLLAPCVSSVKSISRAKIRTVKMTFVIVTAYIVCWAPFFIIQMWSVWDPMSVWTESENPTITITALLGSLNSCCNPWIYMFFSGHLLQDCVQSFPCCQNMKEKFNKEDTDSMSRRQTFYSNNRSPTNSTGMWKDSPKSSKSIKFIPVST

SMILES	Paleness (Duration, hrs; SD) [2, 3]	Paleness (Duration, hrs; SD) [2, 4]	Paleness (Duration, hrs; SD) ([2]; S.C., at the NOAEL dose)	Paleness (Duration, hrs; SD) ([2]; S.C., at the NOEL dose)	Highest dose with no-observed effect level or paleness (NOEL) ([2]; S.C., rat)	NOAEL at 24 h [2, 5]	Marked adverse effect (Lowest dose first showed Ataxia) ([2]; rat, in vivo, sc)	Mild adverse effect (Lowest dose first showed Lethargy) ([2]; rat, in vivo, sc)	EC50 (V1a receptor; [6])	Emax (V1a receptor; Table 3)	NOAEL/NOEL (therapeutic index) ([2]; S.C., rat)	further results
NCC(=O)NCC(=O)NCC(=O)NCC(=O)NCC(=O)NCC(=O)NCCCC[C@H](NC(=O)[C@@H]1CCCN1C(=O)[C@@H]1CSSCCC(=O)N[C@@H](Cc2ccc(O)cc2)C(=O)N[C@@H](Cc2ccccc2)C(=O)N[C@@H](CCCC(N)=O)C(=O)N[C@@H](CC(N)=O)C(=O)N1)C(=O)NCC(N)=O [SEQ ID NO. 13, Mpa-Tyr-Phe-Hgn-Asn-Cys-Pro-Lys(X)a-Gly-NH2; (X)a = (Gly)6]	(>5.6)* hrs	(6.23 ± 0.06) hrs	(6.07 ± 0.08) hrs	None observed	0.003 mg/kg	0.3 mg/kg	5.0 mg/kg	0.5 mg/kg				drop in portal pressure compared to Terlipressin (41 ug/kg) ([1]; 12 ug/kg dose, BDL rats): more effective in providing a sustain drop in portal pressure; Percent decrease (%) in Mean Portal Vein Pressure (MPVP) from BDL baseline prior to treatment ([1]; Time 1 hr): 5%; Percent decrease (%) in Mean Portal Vein Pressure (MPVP) from BDL baseline prior to treatment ([1]; Time 4 hr): −30.5%; Percent decrease (%) in Mean Portal Vein Pressure (MPVP) from BDL baseline prior to treatment ([1]; Time 7 hr): −10.5%; Percent decrease (%) in Mean Portal Vein Pressure (MPVP) from BDL baseline prior to treatment ([1]; Time 20 hr): −29.75%; Emax (V1a receptor): 28.2%
NCC(=O)NCC(=O)NCC(=O)NCC(=O)NCC(=O)NCC(=O)NCC(=O)NCC(=O)NCCCC[C@H](NC(=O)[C@@H]1CCCN1C(=O)[C@@H]1CSSCCC(=O)N[C@@H](Cc2ccc(O)cc2)C(=O)N[C@@H](Cc2ccccc2)C(=O)N[C@@H](CCCC(N)=O)C(=O)N[C@@H](CC(N)=O)C(=O)N1)C(=O)NCC(N)=O [SEQ ID NO. 15, Mpa-Tyr-Phe-Hgn-Asn-Cys-Pro-Lys(X)a-Gly-NH2; (X)a = (Gly)8]	(>6.19)* hrs	(>6.17)* hrs	(5.68 ± 0.06) hrs	None Observed	0.0015 mg/kg	0.15 mg/kg	1.5 mg/kg	0.5 mg/kg	226 nM	24.8%	100	
NCC(=O)NCC(=O)NCC(=O)NCC(=O)NCC(=O)NCCCC[C@H](NC(=O)[C@@H]1CCCN1C(=O)[C@@H]1CSSCCC(=O)N[C@@H](Cc2ccc(O)cc2)C(=O)N[C@@H](Cc2ccccc2)C(=O)N[C@@H](CCCC(N)=O)C(=O)N[C@@H](CC(N)=O)C(=O)N1)C(=O)NCC(N)=O [SEQ ID NO. 12, Mpa-Tyr-Phe-Hgn-Asn-Cys-Pro-Lys(X)a-Gly-NH2; (X)a = (Gly)5]	(>6.69)* hrs	(>6.65)* hrs	(5.79 ± 0.08) hrs	None Observed	0.0015 mg/kg	0.15 mg/kg	1.5 mg/kg	0.5 mg/kg	50.1 nM	29.6%	100	
CCCCCCCCCCCC(=O)NCCCC[C@H](NC(=O)[C@@H]1CCCN1C(=O)[C@@H]1CSSCCC(=O)N[C@@H](Cc2ccc(O)cc2)C(=O)N[C@@H](Cc2ccccc2)C(=O)N[C@@H](CCCC(N)=O)C(=O)N[C@@H](CC(N)=O)C(=O)N1)C(=O)NCC(N)=O [SEQ ID NO. 27, Mpa-Tyr-Phe-Hgn-Asn-Cys-Pro-Lys(X)a-Gly-NH2; (X)a = Lauric acid]					0.1 mg/kg		>9 mg/kg	>9 mg/kg			90 (dose too	V1a Highest agonist effect (% of AVP); n = 2 (V1a receptor; Table 3): inactive; EC50 (V1a receptor; Table 3, cells printed in μM, read-out: Estimated V1a EC50): > 10000 nM; NOAEL [2, 5]: 9 mg/kg; Ataxia (duration, hrs; SD) ([2]; rat, in vivo, sc): None Observed; Lethargy (duration, hrs; SD) ([2]; rat, in vivo, sc): None Observed
